The values below come from ChEMBL document CHEMBL1136691, “Identification of novel and potent isoquinoline aminooxazole-based IMPDH inhibitors” (Bioorg Med Chem Lett, 2003).

As a reminder, the IC50 is the point on the concentration scale where inhibition reaches its midpoint. Higher therefore signals lower potency.

For this assay, the target named is Inosine-5'-monophosphate dehydrogenase 2 (Homo sapiens, UniProt P12268). The assay can be described thus: Inhibitory activity against inosine […] monophosphate dehydrogenase type II (IMPDH II).

As for `Nc1ccc2cnccc2c1Cl`, the half-inhibitory concentration (IC50) is 1200 nM.

For the compound `Nc1ccc2cnccc2c1N`, the IC50 was more than 5000 nM.

In turn, `O=C(Nc1ccccc1)Nc1ccc2cnccc2c1` yielded a 50% inhibitory concentration (IC50) of 740 nM.

As for `c1ccc(-c2cnc(Nc3ccc4cncnc4c3)o2)cc1`, the concentration for half-maximal inhibition (IC50) is 60 nM.

On to `Cc1cccc(NC(=O)Nc2ccc3cnncc3c2)c1`, for which the IC50 was more than 5000 nM.

For the compound `Cc1ccccc1NC(=O)Nc1ccc2cnccc2c1`, half-maximal inhibition (IC50) was put at 3800 nM. That is a single-digit micromolar value.

Regarding `CC(=O)Nc1ccc2cnccc2c1Cl`, the IC50 is more than 5000 nM.

`c1ccc(-c2cnc(Nc3ccc4cnccc4c3)o2)cc1` came in with a concentration for half-maximal inhibition (IC50) of 5 nM.

In turn, `Nc1ccc2cnccc2c1` registered a 50% inhibitory concentration (IC50) of more than 5000 nM.

Regarding `CCCc1c(N)ccc2cnccc12`, the IC50 was more than 5000 nM.

In turn, `C=Cc1c(N)ccc2cnccc12` displayed a 50% inhibitory concentration (IC50) of 820 nM.

Take `O=C(Nc1ccccc1)Nc1ccc2cnccc2c1Br`: it took 740 nM to reach half-maximal inhibition (IC50). This IC50 and that of the compound before are within 1.5-fold of each other.

Compound `O=C(Nc1ccccc1)Nc1ccc2cnccc2c1Cl` returned an IC50 of 1660 nM.

The compound `Cc1cccc(NC(=O)Nc2ccc3nnccc3c2)c1` showed a half-inhibitory concentration (IC50) of more than 1700 nM.

On to `CC(=O)Nc1ccc2cnccc2c1Br`, for which the IC50 is more than 5000 nM.

In turn, `Cc1c(N)ccc2cnccc12` registered an IC50 of more than 5000 nM.

In turn, `CC(=O)Nc1ccc2cnccc2c1` gave an IC50 of more than 5000 nM.

The compound `Cc1cccc(NC(=O)Nc2ccc3cnccc3c2)c1` showed an IC50 of 18 nM.

Regarding `COc1ccc2cnccc2c1Br`, the IC50 is more than 5000 nM.

As for `O=C(NCc1ccccc1)Nc1ccc2cnccc2c1`, the IC50 worked out at 400 nM.

As for `Nc1ccc2cnccc2c1Br`, the IC50 was 550 nM.

`C=CCc1c(N)ccc2cnccc12`: the half-inhibitory concentration (IC50) is 3000 nM.

In turn, `O=C(Nc1ccccc1)Nc1ccc2ccncc2c1` came in with an IC50 of more than 5000 nM.

Consider `Cc1cccc(NC(=O)Nc2ccc3cncnc3c2)c1`, for which half-maximal inhibition (IC50) required 150 nM.

In turn, `Cc1ccc(NC(=O)Nc2ccc3cnccc3c2)cc1` yielded an IC50 of 247 nM.
